Results taken from paper PMC4503439, “Dose-Independent ADME Properties and Tentative Identification of Metabolites of α-Mangostin from Garcinia mangostana in Mice by Automated Microsampling and UPLC-MS/MS Methods” (PLoS ONE, 2015).

Experiment: Tentative identification of metabolites from α-MG by UPLC-MS/MS
Type: in vivo
Settings: mice after intravenous and oral α-MG; S9 fractions after 30-min incubation
Source text: Probable metabolites of α-MG were identified using the simultaneous full scan MS, MRM and MS/MS modes in a Waters UPLC-XEVO TQ system (Waters Corporation, Milford, USA) to confirm the structures of any metabolites. […] Structural elucidation of the metabolites was based on the fragmentation patterns of parent ion from the MS/MS mode at a collision energy of 10 to 20 eV generating daughter ions. The mass transitions for α-MG was m/z 411.21 → 354.85 (collision energy of 20 eV and collision cell exit potential of 25 eV, respectively). The unknown masses were further analyzed in MS/MS (daughter scan) mode with the electrospray ionization interface used to generate positive and negative ions at a capillary voltage of 3.0 kV, source temperature of 350°C and desolvation gas temperature of 650°C. The MRM methods for identification of possible metabolites generated by phase I and/or II reactions were included.
These compounds were separated on a reversed-phase C18 column (XSELECT CSH, 2.1 mm × 100 mm i.d., 1.7-μm particle size; Waters, Ireland) with a flow rate of 0.35 mL/min. The mobile phase composition was started at 95: 5 (v/v) of distilled water containing 0.1% formic acid (A) and acetonitrile (B) and gradually changed to 35: 65 (v/v) for 30 min, and then switched back to 95: 5 (v/v) for 40 min.

Compound | Source (samples in which detected)
COc1c(O)cc2oc3cc(O)c(CC4OC4(C)C)c(O)c3c(=O)c2c1CC=C(C)C (stereo not drawn) [M13] | liver, small intestine, feces
COc1c(O)cc2oc3cc(O)c(CC=C(C)C)c(O)c3c(=O)c2c1CC1OC1(C)C (stereo not drawn) [M12] | liver, small intestine, feces

Further lines, results first:

Source (samples in which detected) | Compound
urine, feces, liver, small intestine | COc1c(O)cc2oc3cc(O)c4c(c3c(=O)c2c1CC=C(C)C)OC(C)(C)C=C4 [M8]
urine, feces, liver, small intestine | COc1c(O)cc2oc3cc4c(c(O)c3c(=O)c2c1CC=C(C)C)C=CC(C)(C)O4 [M7]
liver, small intestine, feces | COc1c(O)cc2oc3c(O)c(O)c(CC=C(C)C)c(O)c3c(=O)c2c1CC=C(C)C [M10]
liver, small intestine, feces | COc1c(O)c(O)c2oc3cc(O)c(CC=C(C)C)c(O)c3c(=O)c2c1CC=C(C)C [M11]
